Experimental data from the SangsterLogP compilation.

assay: method code SF, from DOI: 10.1021/jm201475u, PMID: 22339047; settings: not given

logP	Structure (SMILES)
0.87	O=c1cc[nH]c(C(F)(F)F)c1O
-0.65	Cc1cn(C)c(F)c(O)c1=O
-0.8	Cc1c(O)c(=O)c(F)cn1C
-0.46	CCCn1cc(O)c(=O)c(F)c1
1.35	O=c1cc(F)[nH]c(F)c1O
-0.97	Cn1ccc(=O)c(O)c1F
0	Cc1[nH]cc(F)c(=O)c1O
1.7	O=c1c(O)c(F)[nH]c(F)c1F
-0.41	CC(C)n1ccc(=O)c(O)c1F
-0.08	CCCn1ccc(=O)c(O)c1F
-0.92	CC(C)n1cc(O)c(=O)c(F)c1
0.14	O=c1cc[nH]c(C(O)C(F)(F)F)c1O (configuration not stated)
-1.32	Cn1cc(O)c(=O)c(F)c1
-0.45	Cn1ccc(=O)c(O)c1C(F)(F)F
-0.58	CCn1ccc(=O)c(O)c1F
-0.89	CCn1cc(O)c(=O)c(F)c1
0.38	CCCCn1ccc(=O)c(O)c1F

same assay, conditions: pH 7.4

logD	Structure (SMILES)
1.07	Cc1[nH]c(F)c(O)c(=O)c1C
0.23	CCc1c(O)c(=O)ccn1CC
0.25	Cc1cc(=O)c(O)c(F)[nH]1
0.5	Cc1c[nH]c(F)c(O)c1=O
-0.21	O=c1cc[nH]c(F)c1O
